The target of one experiment is T1, HCV NS5B (Hepatitis C virus genotype 1b, UniProt Q9WMX2).
T1 construct: fusion protein, of which the carboxyl terminal 21 amino acids were removed to enhance its solubility; His tag (GSHHHHHH); made in house; host or cells: E. coli
Nature of the experiment: Inhibition of viral RNA-dependent RNA polymerase (RdRp), in vitro biochemical assay. More on the design: species or system HCV genotype 1b virus (BB7). Particulars: HCV NS5B RdRp, BB7, read-out: HCV pol-BB7 IC50. In outline:
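IC50 values are the concentrations that halve in vitro RNA synthesis by HCV NS5B polymerase. The enzyme was a C-terminally truncated (Δ21), His-tagged genotype 1b (BB7 consensus) protein purified from E. coli.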

The test system of experiment [1] is HCV replicon (BB7 sequence) in Huh-7-Clone A cells. Nature of the experiment: HCV replicon assay: ELISA of NS5A protein in replicon-containing cells (Inhibition of Viral RNA Replication). It is filed as cell-based. As to conditions: Hepatitis C virus, read-out: Replicon. In outline: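 EC50 taken from an 8-point serially diluted dose curve, with NS5A level as read-out: fixed cells probed with primary monoclonal and HRP-conjugated secondary, TMB developed 30 min, OD 650 nm. Compound exposure 72 h in Huh-7-Clone A replicon cells (BB7 sequence).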
For orientation: In antiviral work, replicon cells carry a viral genome segment that copies itself.

[2] abbreviates: HCV replicon assay, ranges of EC50.

Like-named read-outs stand apart in the source and are kept apart here.

As usually defined, the IC50 is the midpoint of a concentration-inhibition curve. As for `CNC(=O)c1c(-c2ccc(F)cc2)oc2cc(-c3c(C)n[nH]c3C)c(OC(C)C)cc12` [Example 246, 6-(3,5-Dimethyl-1H-pyrazol-4-yl)-2-(4-fluoro-phenyl)-5-isopropoxy-benzofuran-3-carboxylic acid methylamide], the IC50 on HCV NS5B (reported as range class) is ≤ 500 nM. In experiment [1] (HCV replicon, range of EC50), the EC50 is < 1000 nM.

With `CNC(=O)c1c(-c2ccc(F)cc2)oc2cc(-c3cc(C)n[nH]3)c(OC(C)C)cc12` [Example 247, 2-(4-Fluoro-phenyl)-5-isopropoxy-6-(5-methyl-2H-pyrazol-3-yl)-benzofuran-3-carboxylic acid methylamide], the IC50 on HCV NS5B (reported as range class) fell in the range of 500 to 5000 nM. Moreover, the EC50 in experiment [1] (HCV replicon, range of EC50) was < 10000 nM.

`CNC(=O)c1c(-c2ccc(F)cc2)oc2cc(-c3cc(C)n(C)n3)c(OC(C)C)cc12` [Example 248, 6-(1,5-Dimethyl-1H-pyrazol-3-yl)-2-(4-fluoro-phenyl)-5-isopropoxy-benzofuran-3-carboxylic acid methylamide]: the IC50 on HCV NS5B (reported as range class) lay within 500 to 5000 nM. In experiment [1] (HCV replicon, range of EC50), the EC50 is < 10000 nM.

For the compound `CNC(=O)c1c(-c2ccc(F)cc2)oc2cc(CN(C)S(C)(=O)=O)c(OC(C)C)cc12` [Example 249, 2-(4-Fluoro-phenyl)-5-isopropoxy-6-[(methanesulfonyl-methyl-amino)-methyl]-benzofuran-3-carboxylic acid methylamide], the IC50 at HCV NS5B (reported as range class) is ≤ 500 nM. In addition, the EC50 in experiment [1] (HCV replicon, range of EC50) was < 10000 nM.

As for `CNC(=O)c1c(-c2ccc(F)cc2)oc2cc(N3CCOCC3)c(OCC(C)(C)O)cc12` [Example 250, 2-(4-Fluoro-phenyl)-5-(2-hydroxy-2-methyl-propoxy)-6-morpholin-4-ylbenzofuran-3-carboxylic acid methylamide], the IC50 on HCV NS5B (class symbols A-D) fell in the range of 500 to 5000 nM. Also, the EC50 in experiment [1] (setting [2]) was < 10000 nM.

For the compound `CCC(C)(O)COc1cc2c(C(=O)NC)c(-c3ccc(F)cc3)oc2cc1N1CCOCC1` (stereo not shown) [Example 251, 2-(4-Fluoro-phenyl)-5-(2-hydroxy-2-methyl-butoxy)-6-morpholin-4-yl-benzofuran-3-carboxylic acid methylamide], the IC50 at HCV NS5B (class symbols A-D) lay within 500 to 5000 nM. Further, in experiment [1] (setting [2]), the EC50 is < 10000 nM.

On to `CNC(=O)c1c(-c2ccc(F)cc2)oc2cc(N3CCOCC3)c(OCC(C)O)cc12` (stereo not shown) [Example 252, 2-(4-Fluoro-phenyl)-5-(2-hydroxy-propoxy)-6-morpholin-4-yl-benzofuran-3-carboxylic acid methylamide], for which the IC50 at HCV NS5B (class symbols A-D) was 500 to 5000 nM. Also, in experiment [1] (setting [2]), the EC50 was < 10000 nM.

On to `CNC(=O)c1c(-c2ccc(F)cc2)oc2cc(N(CC(C)O)S(C)(=O)=O)c(OC(C)C)cc12` (stereo not shown) [Example 253, 2-(4-Fluoro-phenyl)-6-[(2-hydroxy-propyl)-methanesulfonyl-amino]-5-isopropoxy-benzofuran-3-carboxylic acid methylamide], for which the IC50 at HCV NS5B (class symbols A-D) was ≤ 500 nM. In addition, the EC50 in experiment [1] (setting [2]) was < 1000 nM.

In the case of `CNC(=O)c1c(-c2ccc(F)cc2)oc2cc(N3CCOCC3)c(OC(C)c3nccs3)cc12` (stereo not shown) [Example 254, 2-(4-Fluoro-phenyl)-6-morpholin-4-yl-5-(1-thiazol-2-yl-ethoxy)-benzofuran-3-carboxylic acid methylamide], the IC50 on HCV NS5B (class symbols A-D) is ≤ 500 nM. The EC50 in experiment [1] (setting [2]) was < 1000 nM.

For the compound `CCN(c1cc2oc(-c3ccc(F)cc3)c(C(=O)NC)c2cc1OC(C)C)S(C)(=O)=O` [Example 255, 6-(Ethyl-methanesulfonyl-amino)-2-(4-fluoro-phenyl)-5-isopropoxy-benzofuran-3-carboxylic acid methylamide], the IC50 at HCV NS5B (class symbols A-D) was ≤ 500 nM. The EC50 in experiment [1] (setting [2]) is < 1000 nM.

Regarding `CNC(=O)c1c(-c2ccc(F)cc2)oc2cc(-c3c(C)n[nH]c3C)c(OC)cc12` [Example 256, 6-(3,5-Diinethyl-1H-pyrazol-4-yl)-2-(4-fluoro-phenyl)-5-methoxy-benzofuran-3-carboxylic acid methylamide], on HCV NS5B (class symbols A-D), the IC50 is ≤ 500 nM. The EC50 in experiment [1] (setting [2]) is < 1000 nM.

(Values after patent US7265152B2 (ViroPharma Incorporated, priority 2002, dated 2007).)
